Assay [1] has as its target Sodium-dependent noradrenaline transporter (Homo sapiens, UniProt P23975).
For assay [2], the target named is 5-hydroxytryptamine receptor 7 (Homo sapiens, UniProt P34969).
The target in assay [3] is T1, Alpha-2A adrenergic receptor (Homo sapiens, UniProt P08913).
T1 sequence (P08913 whole entry): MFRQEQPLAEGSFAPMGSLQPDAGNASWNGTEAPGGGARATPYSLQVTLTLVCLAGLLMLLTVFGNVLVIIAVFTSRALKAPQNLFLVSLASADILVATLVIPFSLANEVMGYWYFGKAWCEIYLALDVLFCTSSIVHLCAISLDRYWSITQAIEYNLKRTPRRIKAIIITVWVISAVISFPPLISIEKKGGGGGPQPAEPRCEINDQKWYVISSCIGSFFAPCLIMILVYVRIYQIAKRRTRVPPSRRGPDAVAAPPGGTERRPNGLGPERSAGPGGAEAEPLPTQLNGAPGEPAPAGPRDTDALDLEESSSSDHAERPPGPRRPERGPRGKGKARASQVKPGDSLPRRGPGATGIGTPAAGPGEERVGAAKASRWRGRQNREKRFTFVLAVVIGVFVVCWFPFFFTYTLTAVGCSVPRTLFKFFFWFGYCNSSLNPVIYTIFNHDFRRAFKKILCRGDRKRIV

Assay [4] has as its target T2, Alpha-2C adrenergic receptor (Homo sapiens, UniProt P18825).
T2 sequence (P18825 whole entry): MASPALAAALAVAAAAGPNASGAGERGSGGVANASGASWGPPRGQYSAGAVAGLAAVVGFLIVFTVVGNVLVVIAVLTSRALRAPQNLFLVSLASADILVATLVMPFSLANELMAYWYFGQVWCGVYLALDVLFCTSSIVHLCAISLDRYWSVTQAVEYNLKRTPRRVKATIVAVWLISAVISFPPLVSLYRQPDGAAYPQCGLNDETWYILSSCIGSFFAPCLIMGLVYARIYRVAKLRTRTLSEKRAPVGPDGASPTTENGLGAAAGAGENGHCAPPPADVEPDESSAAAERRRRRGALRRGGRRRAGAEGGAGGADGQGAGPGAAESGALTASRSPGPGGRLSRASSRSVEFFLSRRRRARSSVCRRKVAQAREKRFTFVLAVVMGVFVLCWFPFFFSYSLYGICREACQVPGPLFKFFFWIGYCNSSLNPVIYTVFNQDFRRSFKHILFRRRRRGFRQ

Assay [5] deals with Sodium-dependent serotonin transporter (Homo sapiens, UniProt P31645).
Sequence of Sodium-dependent serotonin transporter (P31645 whole entry): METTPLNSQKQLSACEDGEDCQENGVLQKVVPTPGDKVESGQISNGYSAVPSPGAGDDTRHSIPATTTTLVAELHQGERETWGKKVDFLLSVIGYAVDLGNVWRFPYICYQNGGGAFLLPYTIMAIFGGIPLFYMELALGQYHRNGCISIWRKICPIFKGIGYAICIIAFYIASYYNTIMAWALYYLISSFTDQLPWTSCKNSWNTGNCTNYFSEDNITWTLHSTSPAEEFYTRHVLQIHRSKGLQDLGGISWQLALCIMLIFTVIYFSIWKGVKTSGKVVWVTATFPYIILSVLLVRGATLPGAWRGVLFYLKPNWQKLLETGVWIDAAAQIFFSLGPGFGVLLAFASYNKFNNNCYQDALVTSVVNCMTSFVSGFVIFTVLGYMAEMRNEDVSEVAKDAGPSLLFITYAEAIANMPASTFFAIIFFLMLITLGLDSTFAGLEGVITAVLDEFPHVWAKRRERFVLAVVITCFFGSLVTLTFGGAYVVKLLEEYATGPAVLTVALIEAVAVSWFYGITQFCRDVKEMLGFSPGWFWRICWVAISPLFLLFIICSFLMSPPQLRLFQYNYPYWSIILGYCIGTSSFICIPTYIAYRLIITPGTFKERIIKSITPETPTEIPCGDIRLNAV

The structures appear in SMILES notation. Values joined by “and” are separate entries in the source; they are usually repeats but may differ in a detail not shown here. Identical values can stand only once.

Sequence of 5-hydroxytryptamine receptor 7 (P34969 whole entry): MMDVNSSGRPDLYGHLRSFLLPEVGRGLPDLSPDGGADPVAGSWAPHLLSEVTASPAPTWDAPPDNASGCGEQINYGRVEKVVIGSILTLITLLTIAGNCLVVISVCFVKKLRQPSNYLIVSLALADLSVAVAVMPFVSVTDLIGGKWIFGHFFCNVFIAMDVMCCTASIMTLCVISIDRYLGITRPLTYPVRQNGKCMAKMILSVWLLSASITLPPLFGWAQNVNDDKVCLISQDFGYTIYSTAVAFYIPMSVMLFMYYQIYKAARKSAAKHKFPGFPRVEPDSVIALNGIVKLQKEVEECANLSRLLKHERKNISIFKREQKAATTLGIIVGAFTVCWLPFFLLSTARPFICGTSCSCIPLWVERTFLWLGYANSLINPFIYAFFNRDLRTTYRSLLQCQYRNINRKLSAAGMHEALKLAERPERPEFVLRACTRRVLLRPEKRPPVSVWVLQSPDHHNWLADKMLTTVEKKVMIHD
Sequence of Sodium-dependent noradrenaline transporter (P23975 whole entry): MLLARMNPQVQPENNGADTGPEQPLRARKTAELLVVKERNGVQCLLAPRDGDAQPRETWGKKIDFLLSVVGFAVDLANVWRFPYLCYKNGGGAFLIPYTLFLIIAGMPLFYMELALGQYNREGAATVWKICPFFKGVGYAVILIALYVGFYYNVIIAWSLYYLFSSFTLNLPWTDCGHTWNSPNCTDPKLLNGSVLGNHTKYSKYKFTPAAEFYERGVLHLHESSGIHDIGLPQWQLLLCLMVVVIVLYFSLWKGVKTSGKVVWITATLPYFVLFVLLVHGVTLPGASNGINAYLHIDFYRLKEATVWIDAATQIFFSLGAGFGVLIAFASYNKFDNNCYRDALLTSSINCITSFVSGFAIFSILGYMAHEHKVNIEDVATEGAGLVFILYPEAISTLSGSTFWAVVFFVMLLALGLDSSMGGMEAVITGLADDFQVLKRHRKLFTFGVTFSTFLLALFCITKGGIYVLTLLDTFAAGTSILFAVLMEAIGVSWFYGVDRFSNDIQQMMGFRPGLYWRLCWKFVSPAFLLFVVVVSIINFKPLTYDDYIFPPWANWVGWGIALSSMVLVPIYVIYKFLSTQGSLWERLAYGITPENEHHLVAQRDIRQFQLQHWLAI

With `CC(N)C(O)c1ccccc1` [(1R, 2S)-2-Amino-1-phenyl-propan-1-ol], the inhibitory constant (Ki) was 137 nM and 42.1 nM and 15 nM and 30.1 nM in assay [1]; 7000 nM in assay [2]; 3020 nM and 1330 nM and 2610 nM and 2600 nM in assay [3].

For the molecule `CNC(C)C(O)c1ccccc1` (configuration not stated) [CAS_24221-86-1], the Ki in assay [4] is 708 nM and 1220 nM; in assay [3], 2010 nM.

Take `CC(N)C(=O)c1ccccc1` (configuration not stated) [CAS_62258]: the Ki in assay [5] amounted to 2370 nM; in assay [1], 12.4 nM; in assay [2] it was 2700 nM; in assay [4], 765 nM; in assay [3] it was 6810 nM.

Regarding `CN[C@@H](C)Cc1ccccc1` [METHAMPHETAMINE (+)], the Ki in assay [5] stood at 736 nM; in assay [1], 12.3 nM.

`CNC(C)C(=O)c1ccccc1` (configuration not stated) [NSC_1576]: the Ki in assay [5] amounted to 1770 nM; in assay [1], 13.1 nM; in assay [2], 1000 nM; in assay [4], 605 nM; in assay [3], 9020 nM.

Broadly, the Ki is the equilibrium dissociation constant of an inhibitor or competing ligand from its target. Higher therefore signals lower affinity.
